Laboratory results published in US10232023B2, “Methods for treatment of and prophylaxis against inflammatory disorders” (THE UNIVERSITY OF UTAH RESEARCH FOUNDATION, priority 2013, dated 2019).

Test system: outbred Swiss mice, intraperitoneal injection of E. coli
Assay: Survival after intraperitoneal E. coli
Type: in vivo, mouse
Description: FIG. 10B is a graph tracking survival of outbred Swiss mice in various treatment arms following intraperitoneal injection of E. coli (4×10^7 bacteria). As in FIG. […] The same dose, delivery route, and schedule were followed for the scrambled peptide control mice. Here, 10 mice were assessed in each group: no treatment, E. coli plus CRISPP, and E. coli plus scrambled peptide.
Survival of outbred Swiss mice was tracked in various treatment arms following intraperitoneal injection of either LPS (20 mg/kg) or E. coli (4×10^7 bacteria), as shown in FIGS. 10A and 10B. […] The same dose, delivery route, and schedule were followed for the scrambled control peptide control mice. Six mice were assessed in both groups: LPS+CRISPP and LPS+scrambled control peptide. […] Ten mice were assessed in each group: no treatment, E. coli+CRISPP, and E. coli+scrambled control peptide. No antibiotics were given. No deaths occurred in the no treatment group. […] Referring to FIG. 11, CRISPP was also evaluated in a murine model of polymicrobial infection caused by cecal ligation and puncture (CL/P). CL/P was also performed without concomitant antibiotic treatment. Ten mice were assessed in each of the CL/P groups. […]
[…] Survival was assessed over 6 days at 6 hour to 12 hour intervals.

In the case of “Cancer-Associated SCM-Recognition, Immune Defense Suppression, and Serine Protease Protection Peptide [CRISPP, nNIF-related peptide (nNRP)]”, the “Survival, post-infection treatment” value (CRISPP-Post/E. coli vs SCR-Post/E. coli, peptide 4 hours after infection) is reported as “approached statistical significance” and the Survival (E. coli 4×10^7 IP, 10 mcg/kg/dose IP, 1 hour prior and 6 hours after, vs E. coli+scrambled peptide, p<0.0001) is reported as “statistically greater”.
